Measurements taken from publication PMC7315583, “Structure and Dynamics of a Thermostable Alcohol Dehydrogenase from the Antarctic Psychrophile Moraxella sp. TAE123” (ACS Omega, 2020).

Biological target: MoADH (His-tagged alcohol dehydrogenase from Moraxella sp. TAE123) (Moraxella sp. TAE123, UniProt Q8GIX7)
Parameters: gene adh
Details: turnover, fixed 35 mM ethanol, NAD+ varied 0-4.0 mM; pH 7.4; 10-53 °C

Sequence of MoADH (His-tagged alcohol dehydrogenase from Moraxella sp. TAE123) (Q8GIX7 whole entry): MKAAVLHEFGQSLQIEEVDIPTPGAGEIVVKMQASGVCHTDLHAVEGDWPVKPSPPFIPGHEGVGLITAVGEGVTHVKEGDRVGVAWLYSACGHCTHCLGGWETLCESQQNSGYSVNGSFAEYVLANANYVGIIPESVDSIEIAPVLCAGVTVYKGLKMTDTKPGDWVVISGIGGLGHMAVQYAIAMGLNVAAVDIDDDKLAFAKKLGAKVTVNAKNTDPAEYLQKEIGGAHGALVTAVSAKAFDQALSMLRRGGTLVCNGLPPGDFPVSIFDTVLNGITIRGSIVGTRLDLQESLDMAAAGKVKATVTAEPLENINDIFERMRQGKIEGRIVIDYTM

CCO [ethanol]
NADH absorbance at 340 nm, microplate reader: Ethanol oxidation reaction rates have been measured as a function of temperature
